Reference: US4713457A, “Ergoline derivatives and acid addition salts thereof” (priority 1985, dated 1987)
Where a name gives a salt, the structure may show the parent alone.

Legend:
[1] = system: ddY male mice, KCN-induced anoxia; assay: Activity on KCN-induced anoxia in mice; type: in vivo, mouse; conditions: for Number of Survived Mice/Total Mice / Survival Time: KCN 2.5 mg/kg i.v.; for Brain protection activity (in words): Table 5
[2] = system: unanesthetized spontaneously hypertensive rats; assay: Heart rate determined simultaneously with blood pressure (sphygmometer connected to the pulse output); type: in vivo, rat; conditions: 10 mg/kg oral
Protocol: (§1) The anti-hypertensive activity of the compounds was determined by the tail cuff method using unanesthetized spontaneously hypertensive rats weighing 300 to 350 g (21 to 25 week old). In this experiment, the systolic blood pressure was determined by the bloodless method using a hemodynamometer. The heart rate was determined simultaneously using a sphygmometer connected to the pulse output. After rats were placed under condition of 40° C. for 10 minutes, the blood pressure was determined by holding the rats in a holder. The test compounds were suspended in a 0.5 wt% aqueous gum arabic. Hydralazine hydrochloride used as a comparative agent was administered as an aqueous solution thereof. The volume of oral administration was 0.5 ml per 100 g of body weight.

[3] = system: Rats, pylorus portion ligated (gastric secretion); assay: Gastric secretion inhibitory activity in pylorus-ligated rats; type: in vivo, rat; conditions: 10 mg/kg into the duodenum, 6 hours
Protocol: Rats weighing 200 to 250 g (8 rats per group) which have been fasting for 24 hours before testing were subjected to abdominal section under ether anesthesia, and the pylorus portion was ligated. Immediately after ligation, the test compound was administered into the duodenum as a suspension in a 5 wt% aqueous gum arabic at a volume of 2 ml/kg. The rats were sacrificed after 6 hours, and the stomach was extracted. The gastric juice was collected to determine the volume thereof, and the acidity of the gastic juice was titrated to a pH 7.0 with a 0.02N aqueous sodium hydroxide solution using a pH meter. The acid secretion amount per 6 hours (μEq/6 h) was calculated by (volume of gastric juice×acidity of gastric juice).

[4] = system: unanesthetized spontaneously hypertensive rats; assay: Anti-hypertensive activity, systolic blood pressure, tail cuff method; type: in vivo, rat; conditions: 10 mg/kg oral
Protocol: as §1

Structure (SMILES)	Number of Survived Mice/Total Mice ([1]; 500 mg/kg i.p.)	Survival Time ([1]; 500 mg/kg i.p.) [s]	Brain protection activity (in words) [1]	Changes in Heart Rate ([2]; 1 hr after administration)	Changes in Heart Rate ([2]; 2 hrs after administration)	Changes in Heart Rate ([2]; 4 hrs after administration)	Changes in Heart Rate ([2]; 6 hrs after administration)	Changes in Heart Rate ([2]; 24 hrs after administration)	Volume of Acid Secreted, Inhibition [3] [%]	Volume of Gastric Juice, Inhibition [3] [%]	Total Acidity ([3]; *p < 0.05) [mEq/liter]	Changes in Systolic Blood Pressure ([4]; 1 hr after administration)	Changes in Systolic Blood Pressure ([4]; 2 hrs after administration)	Changes in Systolic Blood Pressure ([4]; 4 hrs after administration)	Changes in Systolic Blood Pressure ([4]; 6 hrs after administration)	Changes in Systolic Blood Pressure ([4]; 24 hrs after administration)	Number of Survived Mice/Total Mice ([1]; 200 mg/kg i.p.)	Survival Time ([1]; 200 mg/kg i.p.) [s]
CC(C)(CO)[C@@H](O)C(=O)NCCCC(=O)O [Calsium Hopantenate]	0/9	43.8 ± 2.5	did not show any significant activity	–	–	–	–	–	–	–	–	–	–	–	–	–	–	–
CN1C[C@H](Cn2ccnc2)C[C@@H]2c3cccc4[nH]cc(c34)C[C@H]21 [Example 1, 1-(6-Methylergolin-8β-ylmethyl)imidazole]	–	–	–	-39 Δ/min.	-56 Δ/min.	-25 Δ/min.	-58 Δ/min.	-44 Δ/min.	73.3	67.8	62.9 ± 3.8	-78 Δ mmHg	-49 Δ mmHg	-48 Δ mmHg	-60 Δ mmHg	-14 Δ mmHg	–	–
CN1C[C@H](Cn2cccn2)C[C@@H]2c3cccc4[nH]cc(c34)C[C@H]21 [Example 4, 1-(6-Methylergolin-8β-ylmethyl)pyrazole]	–	–	–	-16 Δ/min.	-38 Δ/min.	-52 Δ/min.	-41 Δ/min.	-7 Δ/min.	–	–	–	-37 Δ mmHg	-51 Δ mmHg	-58 Δ mmHg	-49 Δ mmHg	-15 Δ mmHg	–	–
CN1C[C@H](CN2C(=O)CCC2=O)C[C@@H]2c3cccc4[nH]cc(c34)C[C@H]21 [Example 8, N-(6-methylergolin-8β-ylmethyl)succinimide]	–	–	–	6 Δ/min.	3 Δ/min.	-32 Δ/min.	-40 Δ/min.	–	–	–	–	-64 Δ mmHg	-77 Δ mmHg	-59 Δ mmHg	-66 Δ mmHg	–	–	–
Cc1nccn1C[C@@H]1C[C@@H]2c3cccc4[nH]cc(c34)C[C@H]2N(C)C1 [Example 9, 2-Methyl-1-(6-methylergolin-8β-ylmethyl)imidazole]	–	–	–	-12 Δ/min.	-27 Δ/min.	-36 Δ/min.	-32 Δ/min.	-3 Δ/min.	–	–	–	-50 Δ mmHg	-59 Δ mmHg	-60 Δ mmHg	-55 Δ mmHg	-9 Δ mmHg	–	–
CCc1nccn1C[C@@H]1C[C@@H]2c3cccc4[nH]cc(c34)C[C@H]2N(C)C1 [Example 10, 2-Ethyl-1-(6-methylergolin-8β-ylmethyl)imidazole]	–	–	–	2 Δ/min.	-15 Δ/min.	-6 Δ/min.	-11 Δ/min.	–	–	–	–	-69 Δ mmHg	-64 Δ mmHg	-68 Δ mmHg	-66 Δ mmHg	–	–	–
CC(C)c1nccn1C[C@@H]1C[C@@H]2c3cccc4[nH]cc(c34)C[C@H]2N(C)C1 [Example 11, 2-Isopropyl-1-(6-methylergolin-8β-ylmethyl)imidazole]	–	–	–	-37 Δ/min.	-21 Δ/min.	-24 Δ/min.	-46 Δ/min.	–	–	–	–	-53 Δ mmHg	-56 Δ mmHg	-54 Δ mmHg	-58 Δ mmHg	–	–	–
CCCc1nccn1C[C@@H]1C[C@@H]2c3cccc4[nH]cc(c34)C[C@H]2N(C)C1 [Example 12, 1-(6-Methylergolin-8β-ylmethyl)-2-propylimidazole]	–	–	–	-25 Δ/min.	-7 Δ/min.	-8 Δ/min.	-5 Δ/min.	–	–	–	–	-69 Δ mmHg	-59 Δ mmHg	-63 Δ mmHg	-59 Δ mmHg	–	–	–
CN1C[C@H](Cn2ccnc2-c2ccccc2)C[C@@H]2c3cccc4[nH]cc(c34)C[C@H]21 [Example 13, 1-(6-Methylergolin-8β-ylmethyl)-2-phenylimidazole]	–	–	–	-46 Δ/min.	-49 Δ/min.	-49 Δ/min.	–	–	–	–	–	-52 Δ mmHg	-46 Δ mmHg	-54 Δ mmHg	-48 Δ mmHg	–	–	–
CCOC(=O)c1ncn(C[C@@H]2C[C@@H]3c4cccc5[nH]cc(c45)C[C@H]3N(C)C2)c1C [Example 15B, ethyl 5-methyl-1-(6-methylergolin-8β-ylmethyl)-4-imidazolecarboxylate]	–	–	–	-4 Δ/min.	5 Δ/min.	-8 Δ/min.	-11 Δ/min.	–	–	–	–	–	-49 Δ mmHg	-59 Δ mmHg	-59 Δ mmHg	–	–	–
CN(C)CCOC(=O)COc1ccc(Cl)cc1 [Meclofenoxate Hydrochloride]	–	–	did not show any significant activity	–	–	–	–	–	–	–	–	–	–	–	–	–	0/6	47.7 ± 4.4
